pIC50: −log10 of the molar value.

The target in assay [1] is P70S6K (T412E mutant) (Homo sapiens (Human), UniProt P23443, T412E). The assay can be described thus: P70S6K enzyme assay. Format: biochemical. The note with it: read-out: IC50 p70S6K. A digest of the protocol:
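Read-out is the substrate/phosphopeptide ratio from mobility-shift electrophoresis on a LabChip 3000.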

In assay [2] the target is His-AKT (Full Length) (Homo sapiens (Human), UniProt P31749). The assay can be described thus: AKT enzyme assay. The class given is biochemical. The note with it: read-out: IC50 AKT.
Sequence of His-AKT (Full Length) (P31749 whole entry): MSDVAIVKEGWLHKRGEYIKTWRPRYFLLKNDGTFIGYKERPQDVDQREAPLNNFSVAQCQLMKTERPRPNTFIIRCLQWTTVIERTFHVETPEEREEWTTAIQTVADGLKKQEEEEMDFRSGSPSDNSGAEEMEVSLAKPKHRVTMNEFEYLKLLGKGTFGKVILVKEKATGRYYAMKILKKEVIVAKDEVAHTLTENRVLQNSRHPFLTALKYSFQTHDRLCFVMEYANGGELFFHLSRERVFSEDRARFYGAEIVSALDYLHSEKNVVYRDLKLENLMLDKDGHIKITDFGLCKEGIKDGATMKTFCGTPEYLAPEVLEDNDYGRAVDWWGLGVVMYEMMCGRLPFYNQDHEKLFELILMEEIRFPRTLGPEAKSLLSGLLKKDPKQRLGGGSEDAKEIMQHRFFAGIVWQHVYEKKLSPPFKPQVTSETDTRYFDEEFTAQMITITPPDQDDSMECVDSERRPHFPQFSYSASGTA

Sequence of P70S6K (T412E mutant) (P23443 whole entry T412E): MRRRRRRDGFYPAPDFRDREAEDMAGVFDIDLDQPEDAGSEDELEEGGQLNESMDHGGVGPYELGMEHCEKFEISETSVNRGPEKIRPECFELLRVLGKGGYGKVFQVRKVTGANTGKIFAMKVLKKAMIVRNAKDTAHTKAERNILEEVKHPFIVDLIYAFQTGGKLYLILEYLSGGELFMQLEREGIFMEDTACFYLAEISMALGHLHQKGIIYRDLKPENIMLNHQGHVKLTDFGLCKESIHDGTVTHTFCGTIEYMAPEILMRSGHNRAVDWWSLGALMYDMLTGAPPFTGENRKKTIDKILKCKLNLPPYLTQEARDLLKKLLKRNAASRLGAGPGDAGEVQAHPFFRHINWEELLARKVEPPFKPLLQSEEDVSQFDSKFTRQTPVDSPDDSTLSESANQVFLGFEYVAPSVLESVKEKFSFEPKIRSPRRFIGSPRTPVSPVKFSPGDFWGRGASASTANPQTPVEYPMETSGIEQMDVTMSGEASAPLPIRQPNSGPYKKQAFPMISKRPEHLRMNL

Consider `CN(C)CCN(C)CCn1cc(-c2ccc(F)c(C(F)(F)F)c2)nc1C1CCN(c2ncnc(N)c2C(N)=O)CC1` [Compound 365, 4-Amino-6-{4-[1-{2-[(2-dimethylamino-ethyl)-methyl-amino]-ethyl}-4-(4-fluoro-3-trifluoromethyl-phenyl)-1H-imidazol-2-yl]-piperidin-1-yl}-pyrimidine-5-carboxylic acid amide], for which the negative-log IC50 (pIC50) is 8.20 in assay [1] and 6.14 in assay [2].
As to `NC(=O)c1c(N)ncnc1N1CCC(c2nc(-c3ccc(F)c(F)c3)cn2CCN2CCCC2)CC1` [Compound 329], the figures for the pIC50 in assay [1] and in assay [2] were 7.85 and 6.92, respectively.
Consider `Nc1ncnc(N2CCC(c3nc(-c4ccc(F)c(C(F)(F)F)c4)cn3CCN3CCC3)CC2)c1Br` [Compound 217], for which the pIC50 in assay [1] is 8.82; in assay [2], 8.64.
The matching figures for `CC(C)Oc1c(N)ncnc1N1CCC(c2nc(-c3ccc(F)c(C(F)(F)F)c3)cn2CCN(C)C)CC1` [Compound 292]: 8.47 and 8.12.
For `Nc1ncnc(N2CCC(c3nc(-c4ccc(F)c(C(F)(F)F)c4)c[nH]3)CC2)c1Br` [Compound 43, 5-Bromo-6-{4-[4-(4-fluoro-3-trifluoromethyl-phenyl)-1H-imidazol-2-yl]-piperidin-1-yl}-pyrimidin-4-ylamine] the same measures were 8.77 and 6.22.
The matching figures for `CCc1c(N)ncnc1N1CCC(c2nc(-c3ccc(F)c(Cl)c3)cn2CCN2CCC2)CC1` [Compound 281]: 8.41 and 8.04.
In the case of `CCc1c(N)ncnc1N1CCC(c2nc(-c3cncc(C(F)(F)F)c3)cn2CCN2CCC2)CC1` [Compound 99, 6-(4-(1-(2-(azetidin-1-yl)ethyl)-4-(5-(trifluoromethyl)pyridin-3-yl)-1H-imidazol-2-yl)piperidin-1-yl)-5-ethylpyrimidin-4-amine], the results for the pIC50 in assay [1] and in assay [2] were 8.35 and 7.74, respectively.
With `COCCNCCn1cc(-c2ccc(F)c(C(F)(F)F)c2)nc1C1CCN(c2ncnc(N)c2C(N)=O)CC1` [Compound 367, 4-Amino-6-(4-{4-(4-fluoro-3-trifluoromethyl-phenyl)-1-[2-(2-methoxy-ethylamino)-ethyl]-1H-imidazol-2-yl}-piperidin-1-yl)-pyrimidine-5-carboxylic acid amide], the pIC50 is 8.40 in assay [1] and 7.17 in assay [2].
On to `Nc1ncnc(N2CCC(c3nc(-c4ccc(F)c(C(F)(F)F)c4)cn3CCN3CCCCC3)CC2)c1Br` [Compound 61, 5-Bromo-6-{4-[4-(4-fluoro-3-trifluoromethyl-phenyl)-1-(2-piperidin-1-yl-ethyl)-1H-imidazol-2-yl]-piperidin-1-yl}-pyrimidin-4-ylamine], for which the negative-log IC50 (pIC50) in assay [1] is 8.55; in assay [2], 8.05.
For `NC(=O)c1c(N)ncnc1N1CCC(c2nc(-c3cc[nH]c(=O)c3)cn2CCN2CCC2)CC1` [Compound 339] the same measures were 5.57 and 5.24.
For `C=Cc1c(N)ncnc1N1CCC(c2nc(-c3ccc(F)c(C(F)(F)F)c3)cn2CCN(C)C)CC1` [Compound 73, 6-{4-[1-(2-Dimethylamino-ethyl)-4-(4-fluoro-3-trifluoromethyl-phenyl)-1H-imidazol-2-yl]-piperidin-1-yl}-5-vinyl-pyrimidin-4-ylamine] the same measures were 8.57 and 8.10.
As to `CC(C)(C)NCCn1cc(-c2ccc(F)c(C(F)(F)F)c2)nc1C1CCN(c2ncnc(N)c2C#N)CC1` [Compound 375, 4-Amino-6-{4-[1-(2-tert-butylamino-ethyl)-4-(4-fluoro-3-trifluoromethyl-phenyl)-1H-imidazol-2-yl]-piperidin-1-yl}-pyrimidine-5-carbonitrile], the pIC50 was 8.89 in assay [1] and 8.72 in assay [2].
For `NC(=O)c1c(N)ncnc1N1CCC(c2nc(-c3ccc(F)c(Cl)c3)cn2CCN2CCCC2)CC1` [Compound 330] the same measures were 8.44 and 7.85.
In the case of `C=Cc1c(N)ncnc1N1CCC(c2nc(-c3ccc(F)c(C(F)(F)F)c3)cn2CCN2CCCCC2)CC1` [Compound 65, 6-{4-[4-(4-Fluoro-3-trifluoromethyl-phenyl)-1-(2-piperidin-1-yl-ethyl)-1H-imidazol-2-yl]-piperidin-1-yl}-5-vinyl-pyrimidin-4-ylamine], the pIC50 in assay [1] is 8.26; in assay [2], 7.92.
Turning to `Cc1cc(-c2cn(CCN3CCC3)c(C3CCN(c4ncnc(N)c4C(N)=O)CC3)n2)ccc1F` [Compound 124, 4-amino-6-(4-(1-(2-(azetidin-1-yl)ethyl)-4-(4-fluoro-3-methylphenyl)-1H-imidazol-2-yl)piperidin-1-yl)pyrimidine-5-carboxamide], the pIC50 in assay [1] is 8.70; in assay [2], 7.85.
The matching figures for `C=Cc1c(N)ncnc1N1CCC(c2nc(-c3ccc(C(F)(F)F)c(F)c3)cn2CCN2CCCC2)CC1` [Compound 239]: 8.36 and 6.68.
The matching figures for `CCOc1c(N)ncnc1N1CCC(c2nc(-c3ccc(F)c(C)c3)cn2CC2CNC2)CC1` [Compound 185, 6-(4-(1-(azetidin-3-ylmethyl)-4-(4-fluoro-3-methylphenyl)-1H-imidazol-2-yl)piperidin-1-yl)-5-ethoxypyrimidin-4-amine]: 8.66 and 8.18.
In the case of `Nc1ncnc(N2CCC(c3nc(-c4ccc(C(F)(F)F)c(F)c4)cn3CCN3CCCC3)CC2)c1Br` [Compound 229], the negative logarithm of the IC50 (pIC50) in assay [1] was 8.20; in assay [2] it was 7.15.
For `CCc1c(N)ncnc1N1CCC(c2nc(-c3cccc(F)c3)cn2CCN2CCCC2)CC1` [Compound 231] the same measures were 8.44 and 7.34.
The matching figures for `N#Cc1c(N)ncnc1N1CCC(c2nc(-c3ccoc3)cn2CCN2CCC2)CC1` [Compound 129, 4-amino-6-(4-(1-(2-(azetidin-1-yl)ethyl)-4-(furan-3-yl)-1H-imidazol-2-yl)piperidin-1-yl)pyrimidine-5-carbonitrile]: 7.96 and 6.60.
For `Nc1ncnc(N2CCC(c3nc(-c4ccc(F)c(C(F)(F)F)c4)cn3CCN3CCCC3)CC2)c1C(=O)O` [Compound 286] the same measures were 6.87 and 6.14.
As for `CCc1c(N)ncnc1N1CCC(c2nc(-c3ccc(F)c(C(F)(F)F)c3)cn2C2CCNCC2)CC1` [Compound 157, 5-ethyl-6-(4-(4-(4-fluoro-3-(trifluoromethyl)phenyl)-1-(piperidin-4-yl)-1H-imidazol-2-yl)piperidin-1-yl)pyrimidin-4-amine], the negative logarithm of the IC50 (pIC50) in assay [1] was 8.70; in assay [2], 6.72.
The matching figures for `Cc1cc(-c2cn(CCN3CCCC3)c(C3CCN(c4ncnc(N)c4OC(C)C)CC3)n2)ccc1F` [Compound 299]: 8.00 and 8.05.
The matching figures for `CCC(C)(C)NCCn1cc(-c2ccc(F)c(C(F)(F)F)c2)nc1C1CCN(c2ncnc(N)c2C#N)CC1` [Compound 382, 4-Amino-6-{4-[1-[2-(1,1-dimethyl-propylamino)-ethyl]-4-(4-fluoro-3-trifluoromethyl-phenyl)-1H-imidazol-2-yl]-piperidin-1-yl}-pyrimidine-5-carbonitrile]: 8.77 and 8.37.
For `N#Cc1c(N)ncnc1N1CCC(c2nc(-c3ccc(OC(F)F)c(F)c3)cn2CCN2CCC2)CC1` [Compound 314] the same measures were 8.74 and 8.39.

A word on the pIC50: it is the negative decadic logarithm of the IC50, by convention in mol/L.

Values taken from patent US9145392B2, “Imidazole amines as modulators of kinase activity” (Merck Patent GmbH, priority 2011, dated 2015).
